The source of these data is US11926620B1, “1-Cyclopropyl-6-fluoro-4-oxo-7-(4-((2-thioxobenzo[d]oxazol-3(2H)-yl)methyl)piperazin-1-yl)-1,4-dihydroquinoline-3-carboxylic acid as an antimicrobial and anticancer compound” (KING FAISAL UNIVERSITY, priority 2023, dated 2024).

For data set [1], the system named is Chrysosporium keratinophilum. Nature of the data set: Agar plate disc-diffusion, Chrysosporium keratinophilum. Format: cell-based. To be noted: disc 10 μL of 10 mg/mL in DMSO, 72 h, result in words. The protocol: (§1) The antimicrobial properties of the synthesized compounds were studied by the method of agar plate disc-diffusion. Sterilized filter papers (6 mm in diameter) were wetted with 10 μL of a solution of each compound to be tested, containing 10 mg/mL in DMSO, and the discs were allowed to air dry. The discs were then placed onto the surface of agar plates (nutrient agar for bacteria and Sabouraud's dextrose agar for fungi) seeded with the test organism. Each plate contained 15 mL of the agar medium, previously seeded with 0.2 mL of the broth culture of each organism pregrown for 18 h. The plates were incubated at 37° C. for 48 h, and 72 h for fungi. The inhibition zones were measured in mm. Discs impregnated with DMSO were used as a control, and its inhibition zone was subtracted from the tested compound actual inhibition zone.

In another data set the test system is Escherichia coli. Nature of the data set: Agar plate disc-diffusion, Escherichia coli. To be noted: gram-negative Escherichia coli; disc 10 μL of 10 mg/mL in DMSO, 37° C., 48 h; result in words. The class given is cell-based. How it is done: as §1
In data set [2] the test system is human prostate cancer cells (PC3). The experiment in a line: Cytotoxicity by SRB assay, PC3. The class given is cell-based. To be noted: 0.01 μM to 100 μM for 72 h, result in words. How it is done: (§2) The human prostate cancer cells (PC3) and human osteosarcoma cells (MG-63) were obtained from Nawah Scientific Inc. (Mokatam, Cairo, Egypt) and cultured in DMEM (Dulbecco's modified eagle's medium), Gibco, USA, supplemented with fetal bovine serum (FBS) at a concentration of 10% and 100 U/mL of penicillin and streptomycin (PS). The Cells were incubated at 37° C. in a humidified environment that contained 5% CO2. Cells were seeded in 96-well plates as aliquots of 100 μL cell suspension and incubated in a complete media for 24 h. afterward, cells were treated with 1-Cyclopropyl-6-fluoro-4-oxo-7-(4-((2-thioxobenzo[d]oxazol-3(2H)-yl)methyl)piperazin-1-yl)-1,4-dihydroquinoline-3-carboxylic acid at diverse concentrations ranging from 0.01 μM to 100 μM for 72 h. Then, cells were fixed at 4° C. for one hour with 150 μL of 10% trichloroacetic acid (TCA). […] Then, 150 μL of Tris pH 10.5 (10 mM) was added, and the absorbance was measured at 540 nm using a BMG LABTECH®-FLUOstar Omega microplate reader (Ortenberg, Germany). Half maximal inhibitory concentrations (IC50) values were calculated for each experiment using GraphPad Prism 6 software. […] The inhibition was calculated using the following equation: Inhibition %=100−Average Viability

A further data set deals with Pseudomonas aeruginosa. Nature of the data set: Agar plate disc-diffusion, Pseudomonas aeruginosa. The class given is cell-based. The following applies: gram-negative Pseudomonas aeruginosa; disc 10 μL of 10 mg/mL in DMSO, 37° C., 48 h; result in words. The protocol: as §1
For another data set, the system named is Aspergillus flavus. Nature of the data set: Agar plate disc-diffusion, Aspergillus flavus. To be noted: disc 10 μL of 10 mg/mL in DMSO, 72 h, result in words. The class given is cell-based. The protocol:
as §1

The test system of data set [3] is human osteosarcoma cells (MG-63). The experiment in a line: Cytotoxicity by SRB assay, MG-63. To be noted: MG-63 cells, 0.01 μM to 100 μM for 72 h, result in words. The class given is cell-based. The protocol: as §2
In the next data set the test system is Bacillus cereus. The experiment in a line: Agar plate disc-diffusion, Bacillus cereus. Format: cell-based. To be noted: gram positive Bacillus cereus; disc 10 μL of 10 mg/mL in DMSO, 37° C., 48 h; result in words. How it is done: as §1
The test system of the next data set is Staphylococcus aureus. Nature of the data set: Agar plate disc-diffusion, Staphylococcus aureus. The following applies: gram positive Staphylococcus aureus; disc 10 μL of 10 mg/mL in DMSO, 37° C., 48 h; result in words. The class given is cell-based. How it is done:
as §1

As to `O=C(O)c1cn(C2CC2)c2cc(N3CCN(Cn4c(=S)oc5ccccc54)CC3)c(F)cc2c1=O` [1-cyclopropyl-6-fluoro-4-oxo-7-(4-((2-thioxobenzo[d]oxazol-3(2H)-yl)methyl)piperazin-1-yl)-1,4-dihydroquinoline-3-carboxylic acid], the melting point lay within 187 to 189 °C. Besides, the antifungal activity entry in data set [1] is on record as “excellent antimicrobials activities”. The antibacterial activity entry in the data set on Escherichia coli is given as “excellent antimicrobials activities”. Besides, the antiproliferative activity result in data set [2] is “excellent antiproliferative activities”. Also, the antibacterial activity result with Pseudomonas aeruginosa was “excellent antimicrobials activities”. The antifungal activity result in the data set on Aspergillus flavus is “excellent antimicrobials activities”. Further, in data set [3], the antiproliferative activity result is recorded as “excellent antiproliferative activities”. Besides, the antibacterial activity result in the data set on Bacillus cereus is reported as “excellent antimicrobials activities”. The antibacterial activity result in the data set on Staphylococcus aureus is “excellent antimicrobials activities”.
